From US11903386B2, “Strigolactone analogs and their usage in plant control” (King Abdullah University of Science and Technology, priority 2016, dated 2024)

What was measured:
[1] = system: rice leaf segments; assay: Dark-induced leaf senescence of rice leaf segments; format: in vivo, O. sativa, var. Shiokari
Experimental: One week old rice (O. sativa, var. Shiokari) seedlings were established as mentioned above. Uniform seedlings were transferred to 50 ml tubes containing half strength Hoaglands nutrient solution for 7 days and grown in an incubator under white fluorescent light (130-180 μM m^−2 s^−1) with 16 h:8 h (L/D) at 28° C. for one week. Leaf segments of 2 cm were cut from middle part of third leaves of rice plants. Each segment was put in a well (in 24-well plates) containing 2 ml of 2.5 mM MES buffer with 0.05% Tween-20, and incubated at 30° C. in the dark for 7 days. After application of MPs, color change, chlorophyll content, ion leakage and gene expression were monitored daily for 7 days.

[2] = biological target: T1, ShHTL7 (Striga hermonthica, UniProt A0A0M3PNA2); assay: In vitro hydrolysis assay with ShHTL7 (HPLC); format: biochemical; details: 10 μM substrate, 37° C.
T1 sequence (A0A0M3PNA2 1-271): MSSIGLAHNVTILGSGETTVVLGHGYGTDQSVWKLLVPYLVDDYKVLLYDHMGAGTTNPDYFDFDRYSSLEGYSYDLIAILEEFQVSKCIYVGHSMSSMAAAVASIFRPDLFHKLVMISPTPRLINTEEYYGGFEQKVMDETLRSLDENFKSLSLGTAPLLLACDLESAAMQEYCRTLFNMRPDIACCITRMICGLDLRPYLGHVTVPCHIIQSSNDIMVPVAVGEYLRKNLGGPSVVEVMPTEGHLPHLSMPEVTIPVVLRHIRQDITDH

[3] = biological target: T1, ShHTL7; assay: Intrinsic tryptophan fluorescence assay; format: binding; details: ShHTL7 10 μM, mean±SE (n=3); read-out: Kd, affinity of ShHTL7
From the text: (§1) Striga hermonthica ShHTL7 cDNA, GenBank accession KR013127 was kindly provided by Prof. Tadao Asami (The University of Tokyo, Japan). Arabidopsis thaliana D14 (AtD14) cDNA, GenBank accession AY097402 was synthesized and cloned into pUC57 (GenScript). ShHTL7 and OsD14 cDNAs were amplified by RT-PCR using the primers shown in Table 2, digested with BamHI and XhoI, and ligated into BamHI/XhoI digested pGEX-6P-1 expression vector (GE Healthcare). Integrity of plasmids was confirmed by sequencing (KAUST Bioscience Core Lab). The plasmids were then transformed into E. coli BL21 (DE3) cells. The cells were grown in LB broth containing ampicillin ([…]), incubated at 37° C. until OD600 of 0.6 and induced with 0.1 mM isopropyl-β-D-thiogalactopyranoside (IPTG) at 16° C. for 16 h. Harvested cells were re-suspended in lysis buffer: 50 mM Tris-HCl (pH 8.0), 200 mM NaCl, 0.5% Tween-20 and 2 mM dithiothreitol (DTT). After sonication on ice for 10 mins, the lysate was centrifuged at 25,000 rpm for 30 min at 4° C. Supernatant was allowed to bind to glutathione-sepharose beads (GE Healthcare) for 2 h at 4° C., washed 3 times with buffer (50 mM Tris-HCl (pH 8.0), 200 mM NaCl, 2 mM DTT), and eluted by cleaving GST moiety with PreScission™ Protease (GE Healthcare) at 4° C. overnight. Eluted protein was further purified by gel filtration using HiLoad 16/60 Superdex200 prep grade column (GE Healthcare) on an AKTA prime system (GE Healthcare) in gel filtration buffer (10 mM HEPES pH 7.5, 50 mM KCl and 2 mM DTT). Protein eluted as a sharp single peak and purity was judged by 4-15% SDS-PAGE (Bio-Rad). Purified protein was concentrated using an Amicon 10K filter unit (Merck Millipore) and stored at −80° C. until use. Similar expression and purification protocol was followed for OsD14 protein, except that OsD14 was eluted from Glutathione resins using 0.2 mM reduced Glutathione (Sigma) without cutting GST tag.
ShHTL7 tryptophans were excited at 280 nm and […] emission intensity was measured at 333 nm. ShHTL7 (10 μM) was incubated at various dilutions (0.2, 0.4, 0.8, 1.6, 3.12, 6.25, 12.5, 25 and 50 μM) of GR24 and MPs for 30 minutes at room temperature before measurement. Each concentration point was measured in triplicates. Emitted fluorescence was monitored using spectraMaxi3 (Molecular Devices) plate reader in 96-wells black plates. Changes in tryptophan fluorescence intensity occur due to conformational changes in protein when it is bound to ligand; differences in fluorescence intensity were recorded and analyzed. Data were normalized and dissociation coefficient (Kd) values were calculated by fitting to a binding saturation single-site model with GraphPad (PRISM 6).

[4] = biological target: T2, OsD14 (Oryza sativa subsp. japonica, UniProt Q10QA5); assay: YLG (Yoshimulactone Green) competitive hydrolysis assay; format: biochemical, rice; details: with SE (n=3); read-out: IC50, competitive inhibition of OsD14 mediated YLG hydrolysis
T2 construct: made in house; host or cells: E. coli BL21 (DE3)
T2 sequence (Q10QA5 1-318): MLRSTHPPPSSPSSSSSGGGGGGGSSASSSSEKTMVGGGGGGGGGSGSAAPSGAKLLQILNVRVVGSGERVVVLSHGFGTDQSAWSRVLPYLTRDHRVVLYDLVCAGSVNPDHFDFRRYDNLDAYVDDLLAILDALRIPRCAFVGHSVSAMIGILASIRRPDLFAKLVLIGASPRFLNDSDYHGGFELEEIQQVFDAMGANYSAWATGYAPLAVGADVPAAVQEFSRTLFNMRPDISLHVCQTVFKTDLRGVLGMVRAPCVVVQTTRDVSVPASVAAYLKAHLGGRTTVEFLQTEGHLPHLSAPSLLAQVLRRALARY
From the text: as §1
In vitro YLG hydrolysis assays were performed as described by Tsuchiya et al., 2015. Hydrolysis assays were carried out using 0.15 μM of recombinant protein OsD14 in a reaction buffer (100 mM PBS buffer, pH 7.3) with 0.1% dimethylsulfoxide (DMSO) at a 300 μl volume on a 96-well black plate (Thermo). For competitive assays, (±) GR24 and (±) MPs at range between 0.03 to 10 μM (or 100 μM) were co-incubated with 0.3 μM of YLG and reacted at 30° C. incubator for 15 min. Fluorescent intensity was measured with excitation at 485 nm and detected at 535 nm. IC50 values were calculated online (http://www.ic50.tk/index.html). Later, values were converted to the existing conditions when treated by 1.0 μM of recombinant proteins.

[5] = system: rice d3 mutant; assay: Rice micro tillering bioassay, SL insensitive d3 mutant; format: in vivo; details: 2.5 μM, hydroponic culture
Experimental: (§2) Rice seeds (WT, d3, d10) were surface-sterilized by washing with 70% ethanol for 1 min and then with 2.5% sodium hypochlorite for 15 min. Seeds were then rinsed thoroughly with sterile MilliQ water and incubated in water for 2 days at 30° C. in the dark. Pre-germinated seeds were transferred to filter papers containing ½ strength MS medium in 90 mm petri dishes and incubated at 30° C. under fluorescent white light (130-180 μM m^−2 s^−1) for one week. Seven day-old seedlings were transferred to 50 ml falcon tubes (one seedling per tube) containing modified half-strength Hoagland nutrient solution and grown in greenhouse. Plants were treated with MPs at 2.5 μM-2.5×10-7 μM, using GR24 as positive control. The compounds were applied six times, twice a week. Number of tillers per plant, plant height and fresh biomass were measured at final harvest.

[6] = system: rice d10 mutant; assay: Rice micro tillering bioassay, d10 mutant; format: in vivo; details: 2.5 μM, hydroponic culture; untreated (Mock) 4 tillers per plant
Experimental: as §2
Statistical analyses were carried out using statistical software package R (version 3.2.2). Dose-response curves and Half Maximum Effective Concentrations (EC50) were calculated to determine optimum amount of MPs. Synthetic strigolactone analog GR24 was used as reference to estimate efficacy of selected compounds. EC50 and estimated response were calculated using drc package (https://cran.r390 project.org/web/packages/drc/) with a Four Parameter Logistic Curve (Dose Response Curve) (Ritz and Streibig, 2005).

[7] = system: S. hermonthica; details: in vivo; cited from earlier work
[8] = system: Orobanche ramosa; details: tobacco field; cited from earlier work
[9] = system: P. ramosa; details: in vivo; cited from earlier work
[10] = system: parasite seed; details: in vivo; cited from earlier work

CC1=C[C@H](O/C=C2/C(=O)O[C@@H]3c4ccccc4C[C@H]23)OC1=O [GR24, reference compound]
Transcript levels of Senescence Associated Genes Osl20 and Osl295 ([1]; after 5 days of treatment): striking increase in their transcripts
Change in leaf color, time relative to control ([1]; dark, leaf segments): about two days earlier than the control
Change in leaf color, day observed ([1]; dark, leaf segments monitored 7 days): already on the third day after treatment
Ion leakage compared to the control ([1]; first five days): did not detect a difference
Ion leakage compared to the control ([1]; sixth and seventh day): striking increase
Chlorophyll content ([1]; third day): clear reduction
Hydrolysis rate by ShHTL7 [2]: followed by MP7, GR24
Kd [3]: 0.44 ± 0.21 µM
IC50 [4]: 5.68 ± 0.183 µM
High-tillering phenotype of d3 mutant (tillers per plant) [5]: neither MPs nor GR24 could restore the high-tillering phenotype
Number of tillers per plant, d10 mutant [6]: 1 tiller per plant

COC(=O)/C(=C/O[C@H]1C=C(C)C(=O)O1)N1C(=O)c2ccccc2C1=O [Nijmegen-1]
Activity in S. hermonthica seed germination [7]: weak germination response
EC50 relative to GR24, orders of magnitude higher [7]: 3 orders of magnitude
Result of suicidal germination field trial [8]: very promising results
Induction of seed germination in P. ramosa [9]: potent inducer

CC1=CC(Oc2ccc(Br)cc2)OC1=O (stereo not shown) [4-Br debranone]
Activity in inducing parasite seed germination [10]: moderate activity in inducing seed germination
